How the values were obtained:
Assay type in all cases: cell-based
[1] = biological target: T1, Caspase8 activated with FADD + Fas (Homo sapiens, UniProt Q14790); test: yeast 384 well β-galactosidase reporter assay, Caspase8 activated with FADD + Fas; conditions: Caspase8 activated with FADD + Fas in yeast, 384 well β-galactosidase activity assay
T1 construct: a small amount of each full-length Caspase construct was expressed with a large amount of adaptor protein FADD; HA (C); expressed in transfected cells; host or cells: Saccharomyces cerevisiae EGY48
Description: (§1) When converting the yeast-based protease reporter system to HTS assay, conditions from agar plates to liquid medium in microtiter wells must be revised. This revision comprises, utilizing the measured β-galactosidase produced by yeast carrying the Caspase-cleavable reporter proteins, and assaying the colorimetric product (OD620nm) derived from X-gal substrate in 384 well plates, as a measure of the lacZ reporter gene activity. We compared β-galactosidase activity produced in the presence or absence of the broad-spectrum caspase inhibitory compound, zVAD-fmk ([…]-Valinyl-Alaninyl-Aspartyl-fluoromethylketone). […] Note that it was determined that it is not advisible to employ glucose in yeast media because it represses the GAL1 promoter used in some plasmids. […]
(§2) Yeast expressing various Caspases alone (at high levels) or in combination with upstream activators (at low levels) and cleavable substrates containing appropriate tetrapeptides reorganized by these proteases were used in 384 well β-galactosidase activity assays to assess inhibition by zVAD-fmk. The compound was titrated into assays at various concentrations and percentage inhibition was determined.
(§3) Assays were performed in a total volume of […] in triplicate. […] Absorbance at 620 nm was measured 2-3 days after culture at 30° C.

Caspase6 = biological target: T2, Caspase6 (Homo sapiens, UniProt P55212); test: yeast 384 well β-galactosidase reporter assay, Caspase6; conditions: Caspase6 in yeast, 384 well β-galactosidase activity assay
T2 construct: each full-length Caspase construct was expressed (for Caspases-1, 2, 3, 4, 5, 6, 7, and 9) at high levels; HA (N); expressed in transfected cells; host or cells: Saccharomyces cerevisiae (EGY48)
T2 sequence (P55212 1-293): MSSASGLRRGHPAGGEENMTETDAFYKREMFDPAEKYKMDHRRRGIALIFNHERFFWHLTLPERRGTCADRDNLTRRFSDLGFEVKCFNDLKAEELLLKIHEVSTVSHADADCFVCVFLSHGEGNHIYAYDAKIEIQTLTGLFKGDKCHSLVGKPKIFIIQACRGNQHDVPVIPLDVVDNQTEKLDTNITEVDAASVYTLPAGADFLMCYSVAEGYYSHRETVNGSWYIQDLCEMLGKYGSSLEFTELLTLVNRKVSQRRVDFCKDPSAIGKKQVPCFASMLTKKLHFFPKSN
Description: as §1, §2, §3

[2] = biological target: T3, Caspase9 activated with Apaf* (Homo sapiens, UniProt P55211); test: yeast 384 well β-galactosidase reporter assay, Caspase9 activated with Apaf*; conditions: Caspase9 activated with Apaf* in yeast, 384 well β-galactosidase activity assay
T3 construct: Caspase (all full-length zymogen proforms) expression plasmids; HA (N); expressed in transfected cells; host or cells: Saccharomyces cerevisiae EGY48
T3 sequence (P55211 1-416): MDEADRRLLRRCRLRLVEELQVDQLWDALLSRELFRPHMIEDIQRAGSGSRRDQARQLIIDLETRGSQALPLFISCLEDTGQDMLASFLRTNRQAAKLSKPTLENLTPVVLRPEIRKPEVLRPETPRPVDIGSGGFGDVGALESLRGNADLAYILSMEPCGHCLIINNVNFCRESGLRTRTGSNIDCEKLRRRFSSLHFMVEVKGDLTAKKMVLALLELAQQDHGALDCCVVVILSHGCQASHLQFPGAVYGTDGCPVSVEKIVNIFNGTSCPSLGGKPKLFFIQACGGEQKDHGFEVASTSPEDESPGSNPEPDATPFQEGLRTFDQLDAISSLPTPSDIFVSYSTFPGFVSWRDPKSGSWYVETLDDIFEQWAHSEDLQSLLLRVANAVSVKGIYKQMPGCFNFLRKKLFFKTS
Description: as §1, §2, §3

[3] = biological target: T4, Caspase10 activated with FADD (Homo sapiens, UniProt Q92851); test: yeast 384 well β-galactosidase reporter assay, Caspase10 activated with FADD; conditions: Caspase10 activated with FADD in yeast, 384 well β-galactosidase activity assay
T4 construct: a small amount of each full-length Caspase construct was expressed with a large amount of adaptor protein FADD; FLAG (C); expressed in transfected cells; host or cells: Saccharomyces cerevisiae EGY48
T4 sequence (Q92851 1-479 isoform Q92851-2): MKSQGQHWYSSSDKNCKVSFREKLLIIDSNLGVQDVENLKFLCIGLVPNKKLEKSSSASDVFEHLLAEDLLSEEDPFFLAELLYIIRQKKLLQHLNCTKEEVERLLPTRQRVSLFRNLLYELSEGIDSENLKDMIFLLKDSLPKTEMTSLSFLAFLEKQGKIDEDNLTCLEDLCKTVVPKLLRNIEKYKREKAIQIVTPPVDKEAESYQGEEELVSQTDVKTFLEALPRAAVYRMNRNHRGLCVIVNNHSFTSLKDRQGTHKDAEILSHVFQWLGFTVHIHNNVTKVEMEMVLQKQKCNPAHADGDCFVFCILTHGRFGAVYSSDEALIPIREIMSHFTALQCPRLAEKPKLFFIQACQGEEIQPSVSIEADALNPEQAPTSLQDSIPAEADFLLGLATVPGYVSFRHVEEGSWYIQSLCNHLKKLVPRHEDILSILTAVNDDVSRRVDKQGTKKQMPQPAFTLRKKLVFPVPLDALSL
Description: as §1, §2, §3

T1 sequence (Q14790 217-374 limits assumed): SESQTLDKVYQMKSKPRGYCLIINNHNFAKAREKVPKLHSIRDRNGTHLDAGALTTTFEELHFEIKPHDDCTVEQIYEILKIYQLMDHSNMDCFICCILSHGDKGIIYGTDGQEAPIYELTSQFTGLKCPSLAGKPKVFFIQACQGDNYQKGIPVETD
T1 sequence (Q14790 385-479 limits assumed): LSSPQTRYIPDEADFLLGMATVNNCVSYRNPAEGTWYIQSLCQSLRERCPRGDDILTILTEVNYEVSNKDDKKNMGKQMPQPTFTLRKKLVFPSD

For “benzoyl-Valinyl-Alaninyl-Aspartyl-fluoromethylketone [zVAD-fmk]”, the IC50 [1] was 5.42 µM, the IC50 (Caspase6) was 6.78 µM and the IC50 [2] was 10.7 µM. It also gave an IC50 [3] of 9.52 µM.
